Measurements from patent US12065436B2, “Cardiac sarcomere inhibitors” (Cytokinetics, Inc., priority 2018, dated 2024).

Target: bovine cardiac myofibrils (full-length cardiac myosin ATPase in the native sarcomere) (Bos taurus (Bovine), UniProt Q9BE39)
Experiment: Skinned bovine cardiac myofibril ATPase assay (PK/LDH-coupled)
Type: biochemical
Details: Ca2+ activating to 75% of maximal rate; for CDMF75 IC15: concentration giving 15% inhibition; for IC50: read-out: CDMF75 IC50
Description: To evaluate the effect of compounds on the ATPase activity of full-length cardiac myosin in the context of the native sarcomere, skinned myofibril assays were performed. Bovine cardiac myofibrils were obtained by homogenizing bovine cardiac left ventricular tissue in the presence of a detergent such as triton X-100. Such treatment removes membranes and a majority of the soluble cytoplasmic proteins but leaves intact the cardiac sarcomeric acto-myosin apparatus. Myofibril preparations retain the ability to hydrolyze ATP in an Ca^2+ regulated manner. ATPase activities of such myofibril preparations in the presence and absence of compounds were assayed at Ca^2+ concentrations activating to a defined fraction of the maximal rate (i.e., 25%, 75%). Small molecule agents were assessed for their ability to inhibit the steady-state ATPase activity of bovine cardiac myofibrils using pyruvate kinase and lactate dehydrogenase (PK/LDH)-coupled enzyme system. This assay regenerates myosin-produced ADP into ATP by oxidizing NADH, producing an absorbance change at 340 nm. Prior to testing small molecule agents, the bovine cardiac myofibrils were assessed for their calcium responsiveness and the calcium concentration that achieves either a 50% (pCa50) or 75% (pCa75) activation of the myofibril system was chosen as the final condition for assessing the inhibitory activity of the small molecule agents. All enzymatic activity was measured in a buffered solution containing 12 mM PIPES (piperazine-N,N′-bis(2-ethanesulfonic acid), 2 mM magnesium chloride at pH 6.8 (PM 12 buffer). Final assay conditions were 1 mg/mL of bovine cardiac myofibrils, 4 U/mL pyruvate kinase, 6 U/mL lactate dehydrogenase, 50 μM ATP, 0.1 mg/mL BSA (bovine serum albumin), 10 ppm antifoam, 1 mM DTT, 0.5 mM NADH, 1.5 mM PEP, 0.6 mM EGTA, and an amount of CaCl2) sufficient to achieve either 50% or 75% activation of the myofibril ATPase activity.

bovine cardiac myofibrils (full-length cardiac myosin ATPase in the native sarcomere), sequence (Q9BE39 whole entry): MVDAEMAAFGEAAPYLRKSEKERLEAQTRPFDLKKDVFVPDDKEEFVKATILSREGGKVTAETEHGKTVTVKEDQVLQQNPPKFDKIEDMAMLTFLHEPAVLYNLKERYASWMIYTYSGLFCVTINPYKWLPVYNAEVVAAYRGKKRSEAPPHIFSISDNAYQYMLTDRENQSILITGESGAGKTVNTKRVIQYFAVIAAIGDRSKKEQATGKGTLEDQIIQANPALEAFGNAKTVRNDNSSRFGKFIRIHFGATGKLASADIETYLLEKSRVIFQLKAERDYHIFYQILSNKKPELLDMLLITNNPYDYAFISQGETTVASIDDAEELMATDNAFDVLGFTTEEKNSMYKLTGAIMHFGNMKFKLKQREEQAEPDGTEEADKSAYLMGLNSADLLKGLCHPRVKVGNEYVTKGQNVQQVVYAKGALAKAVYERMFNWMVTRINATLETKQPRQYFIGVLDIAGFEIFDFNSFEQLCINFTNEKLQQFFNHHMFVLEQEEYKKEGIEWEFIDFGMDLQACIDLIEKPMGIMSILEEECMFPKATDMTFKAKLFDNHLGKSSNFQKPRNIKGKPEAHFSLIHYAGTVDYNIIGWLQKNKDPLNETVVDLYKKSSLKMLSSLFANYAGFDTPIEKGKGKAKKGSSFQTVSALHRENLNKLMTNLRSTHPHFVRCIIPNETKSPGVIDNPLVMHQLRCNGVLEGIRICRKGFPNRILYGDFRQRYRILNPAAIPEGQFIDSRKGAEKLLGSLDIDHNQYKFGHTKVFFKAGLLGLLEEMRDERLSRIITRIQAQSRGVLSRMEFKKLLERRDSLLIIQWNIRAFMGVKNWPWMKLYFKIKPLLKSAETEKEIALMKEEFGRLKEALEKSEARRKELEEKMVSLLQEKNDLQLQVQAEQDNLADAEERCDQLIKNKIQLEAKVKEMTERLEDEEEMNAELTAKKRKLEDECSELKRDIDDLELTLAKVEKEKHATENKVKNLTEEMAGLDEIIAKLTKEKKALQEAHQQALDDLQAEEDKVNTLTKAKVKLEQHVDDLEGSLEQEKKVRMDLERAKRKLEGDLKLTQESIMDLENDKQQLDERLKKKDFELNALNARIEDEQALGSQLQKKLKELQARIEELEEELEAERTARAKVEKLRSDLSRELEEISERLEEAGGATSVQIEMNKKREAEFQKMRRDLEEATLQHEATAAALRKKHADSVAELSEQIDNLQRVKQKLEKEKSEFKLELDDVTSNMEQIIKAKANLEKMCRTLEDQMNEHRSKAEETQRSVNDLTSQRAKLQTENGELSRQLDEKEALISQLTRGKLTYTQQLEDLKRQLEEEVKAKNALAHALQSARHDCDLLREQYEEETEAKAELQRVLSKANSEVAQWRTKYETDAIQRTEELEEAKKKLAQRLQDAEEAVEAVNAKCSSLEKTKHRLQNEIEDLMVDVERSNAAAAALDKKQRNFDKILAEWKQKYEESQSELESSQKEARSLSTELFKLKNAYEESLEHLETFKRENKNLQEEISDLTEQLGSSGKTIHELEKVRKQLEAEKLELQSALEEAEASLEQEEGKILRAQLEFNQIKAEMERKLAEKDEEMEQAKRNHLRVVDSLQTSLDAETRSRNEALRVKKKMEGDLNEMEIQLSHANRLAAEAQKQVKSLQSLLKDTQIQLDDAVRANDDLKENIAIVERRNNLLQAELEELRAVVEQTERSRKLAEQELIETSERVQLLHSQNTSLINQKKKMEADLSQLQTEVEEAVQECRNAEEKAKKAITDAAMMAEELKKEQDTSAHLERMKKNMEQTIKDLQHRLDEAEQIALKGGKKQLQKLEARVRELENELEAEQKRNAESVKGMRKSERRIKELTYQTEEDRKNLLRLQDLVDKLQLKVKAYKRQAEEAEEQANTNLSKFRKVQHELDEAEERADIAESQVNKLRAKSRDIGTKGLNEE
bovine cardiac myofibrils (full-length cardiac myosin ATPase in the native sarcomere), sequence (P85100 whole entry partner): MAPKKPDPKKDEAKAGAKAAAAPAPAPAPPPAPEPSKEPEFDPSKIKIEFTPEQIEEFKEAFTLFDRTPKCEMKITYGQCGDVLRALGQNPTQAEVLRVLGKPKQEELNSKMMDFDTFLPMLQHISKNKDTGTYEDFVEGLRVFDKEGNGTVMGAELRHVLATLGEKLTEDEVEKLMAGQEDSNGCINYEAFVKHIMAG
bovine cardiac myofibrils (full-length cardiac myosin ATPase in the native sarcomere), sequence (Q3SZE5 whole entry partner): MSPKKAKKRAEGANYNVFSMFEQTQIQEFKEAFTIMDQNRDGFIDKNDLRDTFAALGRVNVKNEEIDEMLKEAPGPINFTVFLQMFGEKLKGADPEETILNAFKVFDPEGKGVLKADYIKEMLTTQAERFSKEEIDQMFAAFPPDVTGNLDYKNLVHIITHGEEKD

SMILES | CDMF75 IC15 | IC50
O=C(NC1CCc2cc(-c3noc(C(F)F)n3)ccc21)C(F)F (stereo not drawn) [Compound 1, N-(5-(5-(difluoromethyl)-1,2,4-oxadiazol-3-yl)-2,3-dihydro-1H-inden-1-yl)-2,2-difluoroacetamide] | 4.5 µM | 21.7 µM
Cc1cc(C(=O)NC2CCc3cc(-c4noc(C)n4)ccc32)ccn1 (stereo not drawn) [Compound 3, 2-methyl-N-(5-(5-methyl-1,2,4-oxadiazol-3-yl)-2,3-dihydro-1H-inden-1-yl)isonicotinamide] | 1.8 µM | 7 µM
Cc1ncc(C(=O)NC2CCc3cc(-c4noc(C(F)F)n4)ccc32)o1 (stereo not drawn) [Compound 9, N-(5-(5-(difluoromethyl)-1,2,4-oxadiazol-3-yl)-2,3-dihydro-1H-inden-1-yl)-2-methyloxazole-5-carboxamide] | 1.4 µM | 6.7 µM
O=C(Nc1ccccc1)NC1CCc2cc(-c3noc(C(F)F)n3)ccc21 (stereo not drawn) [Compound 13, 1-(5-(5-(difluoromethyl)-1,2,4-oxadiazol-3-yl)-2,3-dihydro-1H-inden-1-yl)-3-phenylurea] | 0.5 µM | 22.1 µM
CC(C)NC(=O)NC1CCc2cc(-c3noc(C(F)F)n3)ccc21 (stereo not drawn) [Compound 14, 1-(5-(5-(difluoromethyl)-1,2,4-oxadiazol-3-yl)-2,3-dihydro-1H-inden-1-yl)-3-isopropylurea] | 39.2 µM | > 39.2 µM
CC(C)(C)OC(=O)NC1CCc2cc(-c3noc(C(F)F)n3)ccc21 (stereo not drawn) [Compound 16, tert-butyl (5-(5-(difluoromethyl)-1,2,4-oxadiazol-3-yl)-2,3-dihydro-1H-inden-1-yl)carbamate] | 8.9 µM | > 39.2 µM
CCc1nc(-c2cnc3c(c2)CCC3NC(=O)c2ccccc2)no1 (stereo not drawn) [Compound 17, N-(3-(5-ethyl-1,2,4-oxadiazol-3-yl)-6,7-dihydro-5H-cyclopenta[b]pyridin-7-yl)benzamide] | 2.3 µM | 11.3 µM
Cc1cc(C(=O)NC2COc3cc(-c4noc(C)n4)ccc32)ccn1 (stereo not drawn) [Compound 18, 2-methyl-N-(6-(5-methyl-1,2,4-oxadiazol-3-yl)-2,3-dihydrobenzofuran-3-yl)isonicotinamide] | 1.1 µM | 6.8 µM
CCn1nc(C)c(C(=O)NC2CCc3cc(-c4noc(C(F)F)n4)ccc32)n1 (stereo not drawn) [Compound 20, N-(5-(5-(difluoromethyl)-1,2,4-oxadiazol-3-yl)-2,3-dihydro-1H-inden-1-yl)-2-ethyl-5-methyl-2H-1,2,3-triazole-4-carboxamide] | 2.3 µM | > 39.2 µM
Cc1nc(C(=O)NC2CCc3cc(-c4noc(C(F)F)n4)ccc32)c(C)o1 (stereo not drawn) [Compound 22, N-(5-(5-(difluoromethyl)-1,2,4-oxadiazol-3-yl)-2,3-dihydro-1H-inden-1-yl)-2,5-dimethyloxazole-4-carboxamide] | 5.5 µM | 28.2 µM
Cc1cncc(C(=O)NC2CCc3cc(-c4noc(C(F)F)n4)ccc32)n1 (stereo not drawn) [Compound 23, N-(5-(5-(difluoromethyl)-1,2,4-oxadiazol-3-yl)-2,3-dihydro-1H-inden-1-yl)-6-methylpyrazine-2-carboxamide] | 5.8 µM | 31.4 µM
Cc1cc(C(=O)NC2CCc3cc(-c4noc(C(F)F)n4)ccc32)cc(C)n1 (stereo not drawn) [Compound 24, N-(5-(5-(difluoromethyl)-1,2,4-oxadiazol-3-yl)-2,3-dihydro-1H-inden-1-yl)-2,6-dimethylisonicotinamide] | 2.1 µM | 8 µM
CCc1nn(C)cc1C(=O)NC1CCc2cc(-c3noc(C(F)F)n3)ccc21 (stereo not drawn) [Compound 25, N-(5-(5-(difluoromethyl)-1,2,4-oxadiazol-3-yl)-2,3-dihydro-1H-inden-1-yl)-3-ethyl-1-methyl-1H-pyrazole-4-carboxamide] | 3.9 µM | 16.5 µM
Cc1nccc(C(=O)NC2CCc3cc(-c4noc(C(F)F)n4)ccc32)n1 (stereo not drawn) [Compound 26, N-(5-(5-(difluoromethyl)-1,2,4-oxadiazol-3-yl)-2,3-dihydro-1H-inden-1-yl)-2-methylpyrimidine-4-carboxamide] | 7.8 µM | 30.5 µM

Compounds with a lower IC50, results first:

CDMF75 IC15 | IC50 | SMILES
0.6 µM | 2 µM | Cc1nc(-c2ccc3c(c2)CCC3NC(=O)c2ccccc2)no1 (stereo not drawn) [Compound 2, N-(5-(5-methyl-1,2,4-oxadiazol-3-yl)-2,3-dihydro-1H-inden-1-yl)benzamide]
0.43 µM | 1.6 µM | O=C(NC1CCc2cc(-c3noc(C(F)F)n3)ccc21)c1ccccc1 (stereo not drawn) [Compound 4, N-(5-(5-(difluoromethyl)-1,2,4-oxadiazol-3-yl)-2,3-dihydro-1H-inden-1-yl)benzamide]
0.7 µM | 3.4 µM | Cn1cncc1C(=O)NC1CCc2cc(-c3noc(C(F)F)n3)ccc21 (stereo not drawn) [Compound 6, N-(5-(5-(difluoromethyl)-1,2,4-oxadiazol-3-yl)-2,3-dihydro-1H-inden-1-yl)-1-methyl-1H-imidazole-5-carboxamide]
1.1 µM | 4.8 µM | Cn1cc(C(=O)NC2CCc3cc(-c4noc(C(F)F)n4)ccc32)cn1 (stereo not drawn) [Compound 7, N-(5-(5-(difluoromethyl)-1,2,4-oxadiazol-3-yl)-2,3-dihydro-1H-inden-1-yl)-1-methyl-1H-pyrazole-4-carboxamide]
0.4 µM | 1.4 µM | O=C(NC1CCc2cc(-c3noc(C(F)F)n3)ccc21)c1cnc(Cl)s1 (stereo not drawn) [Compound 8, 2-chloro-N-(5-(5-(difluoromethyl)-1,2,4-oxadiazol-3-yl)-2,3-dihydro-1H-inden-1-yl)thiazole-5-carboxamide]
1.0 µM | 3.4 µM | Cc1ncc(C(=O)NC2CCc3cc(-c4noc(C(F)F)n4)ccc32)s1 (stereo not drawn) [Compound 10, N-(5-(5-(difluoromethyl)-1,2,4-oxadiazol-3-yl)-2,3-dihydro-1H-inden-1-yl)-2-methylthiazole-5-carboxamide]
0.8 µM | 3.4 µM | O=C(NC1CCc2cc(-c3noc(C(F)F)n3)ccc21)c1cncs1 (stereo not drawn) [Compound 11, N-(5-(5-(difluoromethyl)-1,2,4-oxadiazol-3-yl)-2,3-dihydro-1H-inden-1-yl)thiazole-5-carboxamide]
0.6 µM | 2 µM | Cc1ncoc1C(=O)NC1CCc2cc(-c3noc(C(F)F)n3)ccc21 (stereo not drawn) [Compound 12, N-(5-(5-(difluoromethyl)-1,2,4-oxadiazol-3-yl)-2,3-dihydro-1H-inden-1-yl)-4-methyloxazole-5-carboxamide]
0.6 µM | 2 µM | Cc1nc(-c2ccc3c(c2)OCC3NC(=O)c2ccccc2)no1 (stereo not drawn) [Compound 15, N-(6-(5-methyl-1,2,4-oxadiazol-3-yl)-2,3-dihydrobenzofuran-3-yl)benzamide]
1.3 µM | 4.6 µM | Cc1nc(C)c(C(=O)NC2CCc3cc(-c4noc(C(F)F)n4)ccc32)o1 (stereo not drawn) [Compound 19, N-(5-(5-(difluoromethyl)-1,2,4-oxadiazol-3-yl)-2,3-dihydro-1H-inden-1-yl)-2,4-dimethyloxazole-5-carboxamide]
0.7 µM | 2.9 µM | O=C(NC1CCc2cc(-c3noc(C(F)F)n3)ccc21)c1ocnc1C1CC1 (stereo not drawn) [Compound 21, 4-cyclopropyl-N-(5-(5-(difluoromethyl)-1,2,4-oxadiazol-3-yl)-2,3-dihydro-1H-inden-1-yl)oxazole-5-carboxamide]
0.8 µM | 3.3 µM | Cc1c(C(=O)NC2CCc3cc(-c4noc(C(F)F)n4)ccc32)cnn1C (stereo not drawn) [Compound 27, N-(5-(5-(difluoromethyl)-1,2,4-oxadiazol-3-yl)-2,3-dihydro-1H-inden-1-yl)-1,5-dimethyl-1H-pyrazole-4-carboxamide]
0.8 µM | 3.4 µM | Cc1nn(C)cc1C(=O)NC1CCc2cc(-c3noc(C(F)F)n3)ccc21 (stereo not drawn) [Compound 28, N-(5-(5-(difluoromethyl)-1,2,4-oxadiazol-3-yl)-2,3-dihydro-1H-inden-1-yl)-1,3-dimethyl-1H-pyrazole-4-carboxamide]
1.2 µM | 5.3 µM | CCn1nccc1C(=O)NC1CCc2cc(-c3noc(C(F)F)n3)ccc21 (stereo not drawn) [Compound 29, N-(5-(5-(difluoromethyl)-1,2,4-oxadiazol-3-yl)-2,3-dihydro-1H-inden-1-yl)-1-ethyl-1H-pyrazole-5-carboxamide]
0.8 µM | 2.3 µM | Cc1cc(C(=O)NC2CCc3cc(-c4noc(C(F)F)n4)ccc32)n(C)n1 (stereo not drawn) [Compound 30, N-(5-(5-(difluoromethyl)-1,2,4-oxadiazol-3-yl)-2,3-dihydro-1H-inden-1-yl)-1,3-dimethyl-1H-pyrazole-5-carboxamide]
0.6 µM | 2.3 µM | Cc1cc(C(=O)N[C@@H]2CCc3cc(-c4noc(C(F)F)n4)ccc32)ccn1 [Compound 32, (R)-N-(5-(5-(difluoromethyl)-1,2,4-oxadiazol-3-yl)-2,3-dihydro-1H-inden-1-yl)-2-methylisonicotinamide]
